Results as given in paper PMC3979046 (Breast Cancer Research : BCR, 2013).
Read-outs that look alike come from different tables or passages of the source.

What was measured:
[1] = system: patients with HER2+ solid tumors; details: in combination with trastuzumab, true MTD not established
Procedure: This phase 1, multicenter, open-label, nonrandomized, dose-defining study was conducted in accordance with the Declaration of Helsinki and the International Conference on Harmonisation Good Clinical Practice Guidelines, and was approved by relevant regulatory and independent ethics committees including Memorial Sloan-Kettering Cancer Center’s Institutional Review Board, Mofftt Cancer Center’s Quorum Review Institutional Review Board, and The National Research Ethics Service, The Royal Marsden Research Ethics Committee. Patients provided written consent prior to enrolling in the trial. […] Dose finding was based on toxicity probability intervals. In brief, three patients were first dosed at each level and advanced according to the toxicity probability interval; up to another 10 patients (total of 13 patients at a dose level) could be assigned to one dose, in which case up to four DLT events in the dose level of 13 patients would be considered tolerable. […] Correlation of antitumor activity with PI3K pathway activation events (that is, circulating tumor DNA and mutations) was an exploratory objective of this trial.
Patients were evaluated at baseline and throughout the course of the study using physical examinations, vital signs, ophthalmologic examinations, 12-lead electrocardiogram cardiac monitoring, laboratory tests, and Eastern Cooperative Oncology Group performance status.

[2] = human, in vivo
[3] = system: patients with solid tumors; design: method as in PMID 22025163; details: cited from earlier work
[4] = prior phase 1 studies ref 13; cited from earlier work
[5] = system: recombinant human AKT1, AKT2 and AKT3; details: cited from earlier work
cytochrome p450 3A4 = details: cited from earlier work
HER3 = system: HER3; design: method as in PMID 21215704; details: via feedback mechanisms ref 11; cited from earlier work
[6] = Plasma pharmacokinetics of MK-2206 given with trastuzumab; details: for Tmax: human, plasma, oral
[7] = system: HER2+ metastatic breast cancer patients refractory to trastuzumab; design: method as in PMID 22689807; details: phase 3 trial, 296 patients, no chemotherapy ref 21; cited from earlier work

| SMILES | maximum tolerated dose (MTD) ([1]; QOD schedule) [mg] | maximum tolerated dose (MTD) ([1]; QW schedule) [mg] | patients achieving the 48-hour target of at least 56.8 nM [2] | most significant dose-limiting toxicity (DLT) ([3]; monotherapy ref 13) | maximum tolerable dose (MTD) ([3]; monotherapy, QOD ref 13) [mg] | maximum tolerable dose (MTD), expected ([3]; monotherapy, QW, not established due to early discontinuation ref 13) | dose proportionality [4] | off-target kinase activity [5] | relative potency against AKT isoforms ([5]; recombinant human isoforms ref 12) | metabolizing enzyme (cytochrome p450 3A4) | effect on HER3 (HER3) | patients with trough level at or above the clinical monotherapy efficacy trough target of 56.8 nM ([6]; 45 mg or 60 mg QOD with trastuzumab) | geometric mean ratio of Cmax (last dose/first dose) ([6]; 200 mg QW, multiple dosing for 21 to 22 days) | Tmax [6] [h] | Tmax ([6]; median time to maximum concentration, 135 mg and 200 mg QW with trastuzumab) [h] | median progression-free survival [7] [weeks] |
| --- | --- | --- | --- | --- | --- | --- | --- | --- | --- | --- | --- | --- | --- | --- | --- | --- |
| NC1(c2ccc(-c3nc4ccn5c(=O)[nH]nc5c4cc3-c3ccccc3)cc2)CCC1 [MK-2206] | 60 | 135 | ~ 92% | rash | 60 | less than 250 mg | no substantial departure from dose proportionality | little off-target kinase activities | higher potency against recombinant human AKT1 and AKT2 isoforms than AKT3 | metabolized by cytochrome p450 3A4 | upregulate HER3 | 11/11 | 1.30 | 4 to 6 | 4 to 8 |  |
| CS(=O)(=O)CCNCc1ccc(-c2ccc3ncnc(Nc4ccc(OCc5cccc(F)c5)c(Cl)c4)c3c2)o1 [lapatinib] |  |  |  |  |  |  |  |  |  |  |  |  |  |  |  | 8.1 |
